Data from patent US7939467B2, “4-(3-aminobenzoyl)-1-ethylpyrazoles and their use as herbicides” (Bayer CropScience AG, priority 2007, dated 2011).

Columns and labels:
Assay in all cases: Herbicidal action against harmful plants, greenhouse pot test (comparative tables)
Format in all cases: in vivo
[1] = system: Matricaria inodora; settings: 320 g a.i./ha; scored 3-4 weeks after treatment; comparative table 1
Excerpt: (§1) Seeds or rhizome pieces of mono- and dicotyledonous harmful plants are placed in sandy loam in pots of a diameter of 9 to 13 cm and covered with soil. The herbicides, formulated as emulsifiable concentrates or dusts, are applied to the surface of the covering soil in the form of aqueous dispersions or suspensions or emulsions at an application rate of 300 to 800 l of water/ha (converted), at various dosages. For further cultivation of the plants, the pots are then kept in a greenhouse under optimum conditions. The visual scoring of the damage to the harmful plants is carried out 3-4 weeks after the treatment. As shown by the results of these comparative tables, the selected compounds according to the invention have better herbicidal activity against a broad spectrum of economically important mono- and dicotyledonous harmful plants than the compounds disclosed in the prior art.
(§2) Seeds of mono- and dicotyledonous harmful plants are placed in sandy loam in cardboard pots, covered with soil and grown in the greenhouse under good growth conditions. Two to three weeks after sowing, the test plants are treated at the three-leaf stage. The compounds according to the invention, which are formulated as wettable powders or as emulsion concentrates, are sprayed at an application rate of 600 to 800 l of water/ha (converted) in a dosage stated in tables 1 to 5 onto the surface of the green plant parts. After the test plants have been left to stand in the greenhouse for 3 to 4 weeks under optimum growth conditions, the action of the compounds according to the invention is scored in comparison to compounds disclosed in the prior art. As shown by the results of these comparison tables, the selected compounds according to the invention have better herbicidal activity against a broad spectrum of economically important mono- and dicotyledonous harmful plants than the compounds disclosed in the prior art.

[2] = system: Polygonum convolvulus; settings: scored 3-4 weeks after treatment
Excerpt: as §1, §2

[3] = system: Viola tricolor; settings: 320 g a.i./ha; scored 3-4 weeks after treatment; comparative table 1
Excerpt: as §1, §2

[4] = system: Veronica persica; settings: scored 3-4 weeks after treatment
Excerpt: as §1, §2

[5] = system: Echinochloa crus galli; settings: 80 g a.i./ha; scored 3-4 weeks after treatment; comparative table 2
Excerpt: as §1, §2

[6] = system: Setaria viridis; settings: scored 3-4 weeks after treatment
Excerpt: as §1, §2

[7] = 320 g a.i./ha, comparative table 1
[8] = 80 g a.i./ha, comparative table 2
[9] = 320 g a.i./ha, comparative table 3

SMILES	Activity against harmful plants MATIN [1]	Activity against harmful plants POLCO [2, 7]	Activity against harmful plants VIOTR [3]	Activity against harmful plants VERPE [4, 8]	Activity against harmful plants ECHCG [5]	Activity against harmful plants SETVI [6, 8]	Activity against harmful plants POLCO [2, 8]	Activity against harmful plants VERPE [4, 9]	Activity against harmful plants SETVI [6, 9]
CCOCCNc1c(S(C)(=O)=O)ccc(C(=O)c2cnn(CC)c2O)c1C	90%	70%	90%	–	–	–	–	–	–
CCOCCNc1c(S(C)(=O)=O)ccc(C(=O)c2cnn(CC)c2O)c1Cl	0%	0%	70%	–	–	–	–	–	–
CCn1ncc(C(=O)c2ccc(S(C)(=O)=O)c(N(C)CCCOC)c2C)c1O	–	–	–	90%	90%	90%	80%	–	–
CCn1ncc(C(=O)c2ccc(S(C)(=O)=O)c(N(C)CCCOC)c2Cl)c1O	–	–	–	60%	40%	0%	30%	–	–
CCn1ncc(C(=O)c2ccc(S(C)(=O)=O)c(NCC3CC3)c2C)c1O	–	–	–	–	–	–	–	90%	100%
CCn1ncc(C(=O)c2ccc(S(C)(=O)=O)c(NCC3CC3)c2Cl)c1O	–	–	–	–	–	–	–	70%	80%
